This is an account of results in US8637510B2, “Morpholinothiazoles as alpha 7 positive allosteric modulators” (Janssen Pharmaceutica NV, priority 2009, dated 2014).

Each structure is given as a SMILES string.

One data set has as its target T1, human alpha 7-wt nAChR (Homo sapiens, UniProt P36544).
T1 construct: expressed in transfected cells
Description: Ca2+ flux imaging (FDSS) (Protocol B). Format: cell-based. As to conditions: for EC50: potentiation of 100 μM choline, compounds 0.01 μM to 30 μM, read-out: a7-PAM-G_[33]_pEC50 pEC50 (converted); for Emax: read-out: a7-PAM-G_[33]_Eff_Curve_FI % Efficacy. The method, boiled down:
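PAM activity was measured as FDSS calcium fluorescence in α7-wt nAChR cells loaded with 2 μM Fluo-4AM, with compounds at 0.01–30 μM added alongside or 10 min ahead of sub-maximal 100 μM choline. Peak responses were normalised to choline-only efficacy, and EC50 was taken at half-maximal effect.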
(In general: Calcium assays in cells follow changes in intracellular calcium, usually with a dye or a luminescent sensor.)

[1] abbreviates: efficacy of 100 μM choline defined as 100% in the absence of a PAM.

T1 sequence (P36544 23-502): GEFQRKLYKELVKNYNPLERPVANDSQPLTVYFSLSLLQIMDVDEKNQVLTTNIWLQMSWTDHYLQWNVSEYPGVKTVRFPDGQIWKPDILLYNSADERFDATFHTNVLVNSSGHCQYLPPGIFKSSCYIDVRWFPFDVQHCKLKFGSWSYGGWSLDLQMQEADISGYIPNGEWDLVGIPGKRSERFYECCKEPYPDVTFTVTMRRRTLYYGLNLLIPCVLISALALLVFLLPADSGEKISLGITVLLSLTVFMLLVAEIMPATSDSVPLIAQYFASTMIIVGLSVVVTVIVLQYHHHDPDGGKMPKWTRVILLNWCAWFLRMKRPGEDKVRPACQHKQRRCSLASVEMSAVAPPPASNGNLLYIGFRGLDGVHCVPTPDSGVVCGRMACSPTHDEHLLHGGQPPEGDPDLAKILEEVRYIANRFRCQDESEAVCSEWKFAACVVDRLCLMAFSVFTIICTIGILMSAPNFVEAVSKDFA

What is called melting point is the temperature of the solid-liquid transition. `Cc1cc(-c2sc(N3C[C@@H](C)O[C@@H](C)C3)nc2CNC(=O)c2ccon2)cc(C)n1` [Compound 180, N-[[2-[(2R,6S)-2,6-dimethyl-4-morpholinyl]-5-(2,6-dimethyl-4-pyridinyl)-4-thiazolyl]methyl]-3-isoxazolecarboxamide] registered a melting point of 179 °C. The EC50 at human alpha 7-wt nAChR was 1910 nM.

`Cc1cc(-c2sc(N3C[C@@H](C)O[C@@H](C)C3)nc2CNC(=O)c2cccc3c2OC(F)(F)O3)cc(C)n1` [Compound 46, N-[[2-[(2R,6S)-2,6-dimethyl-4-morpholinyl]-5-(2,6-dimethyl-4-pyridinyl)-4-thiazolyl]methyl]-2,2-difluoro-1,3-benzodioxole-4-carboxamide] came in with a melting point of 185 °C. Further, the Emax on human alpha 7-wt nAChR (setting [1]) is 610%. Besides, at human alpha 7-wt nAChR, the EC50 was 331 nM.

For the compound `Cc1cc(F)ccc1C(=O)NCc1nc(N2CCOCC2)sc1-c1ccncc1` [Compound 113, 4-fluoro-2-methyl-N-[[2-(4-morpholinyl)-5-(4-pyridinyl)-4-thiazolyl]methyl]-benzamide], the melting point was 191 °C. Besides, the Emax at human alpha 7-wt nAChR (setting [1]) was 730%. Also, the EC50 at human alpha 7-wt nAChR is 2750 nM.

As to `Cc1cc(-c2sc(N3CC(C)OC(C(F)(F)F)C3)nc2CNC(=O)CC2CC2)cc(C)n1` (single isomer, unassigned) [Compound 206, N-[[5-(2,6-dimethyl-4-pyridinyl)-2-[2-methyl-6-(trifluoromethyl)-4-morpholinyl]-4-thiazolyl]methyl]-cyclopropaneacetamide], the melting point was 150 °C. Also, the Emax on human alpha 7-wt nAChR (setting [1]) worked out at 985%. The EC50 on human alpha 7-wt nAChR was 43.7 nM.

For the compound `Cc1cc(-c2sc(N3C[C@@H](C)O[C@@H](C)C3)nc2CNC(=O)c2sccc2C)cc(C)n1` [Compound 150, N-[[2-[(2R,6S)-2,6-dimethyl-4-morpholinyl]-5-(2,6-dimethyl-4-pyridinyl)-4-thiazolyl]methyl]-3-methyl-2-thiophenecarboxamide], the melting point worked out at 184 °C. In addition, at human alpha 7-wt nAChR (setting [1]), the Emax worked out at 894%. Besides, the EC50 on human alpha 7-wt nAChR is 427 nM.

As for `Cc1cc(-c2sc(N3C[C@@H](C)O[C@@H](C)C3)nc2CNC(=O)c2cc(C)oc2C)cc(C)n1` [Compound 146, N-[[2-[(2R,6S)-2,6-dimethyl-4-morpholinyl]-5-(2,6-dimethyl-4-pyridinyl)-4-thiazolyl]methyl]-2,5-dimethyl-3-furancarboxamide], the melting point came to 131 °C. For the same compound, at human alpha 7-wt nAChR, the EC50 is 977 nM.

For `Cc1ccc(-c2sc(N3C[C@@H](C)O[C@@H](C)C3)nc2CNC(=O)CC2CC2)cn1` [Compound 119, N-[[2-[(2R,6S)-2,6-dimethyl-4-morpholinyl]-5-(6-methyl-3-pyridinyl)-4-thiazolyl]methyl]-cyclopropaneacetamide], the melting point was 139 °C. Further, on human alpha 7-wt nAChR (setting [1]), the Emax turned out to be 302%. Besides, the EC50 at human alpha 7-wt nAChR is 4270 nM.

Consider `Cc1cc(-c2sc(N3C[C@@H](C)O[C@@H](C)C3)nc2CNC(=O)C2CCCC2)c(C)cn1` [Compound 96, N-[[2-[(2R,6S)-2,6-dimethyl-4-morpholinyl]-5-(2,5-dimethyl-4-pyridinyl)-4-thiazolyl]methyl]-cyclopentanecarboxamide], for which the melting point came to 173 °C. At human alpha 7-wt nAChR (setting [1]), the Emax stood at 420%. In addition, the EC50 on human alpha 7-wt nAChR was 676 nM.

In turn, `Cc1cc(-c2sc(N3C[C@@H](C)O[C@@H](C)C3)nc2CNC(=O)c2ccc(Cl)c(Cl)c2)cc(C)n1` [Compound 35, 3,4-dichloro-N-[[2-[(2R,6S)-2,6-dimethyl-4-morpholinyl]-5-(2,6-dimethyl-4-pyridinyl)-4-thiazolyl]methyl]-benzamide] gave a melting point of 185 °C. In addition, the Emax on human alpha 7-wt nAChR (setting [1]) came out at 599%. Also, the EC50 on human alpha 7-wt nAChR was 132 nM.

On to `Cc1cc(C(=O)NCc2nc(N3CCOCC3)sc2-c2ccncc2)no1` [Compound 111, 5-methyl-N-[[2-(4-morpholinyl)-5-(4-pyridinyl)-4-thiazolyl]methyl]-3-isoxazolecarboxamide], for which the melting point is 191 °C. On human alpha 7-wt nAChR (setting [1]), the Emax is 812%.

Consider `Cc1cc(-c2sc(N3C[C@@H](C)O[C@@H](C)C3)nc2CNC(=O)CC(C)C)cc(C)n1` [Compound 42, N-[[2-[(2R,6S)-2,6-dimethyl-4-morpholinyl]-5-(2,6-dimethyl-4-pyridinyl)-4-thiazolyl]methyl]-3-methyl-butanamide], for which the melting point came out at 184 °C. On human alpha 7-wt nAChR (setting [1]), the Emax came out at 827%. Besides, at human alpha 7-wt nAChR, the EC50 was 10.5 nM.

`Cc1cc(C(=O)NCc2nc(N3CCOC(C)C3)sc2-c2cc(C)nc(C)c2)on1` (single isomer, unassigned) [Compound 72, N-[[5-(2,6-dimethyl-4-pyridinyl)-2-[(2S*)-2-methyl-4-morpholinyl]-4-thiazolyl]methyl]-3-methyl-5-isoxazolecarboxamide]: the melting point amounted to 138 °C. In addition, the EC50 on human alpha 7-wt nAChR is 2000 nM.

In turn, `O=C(CC1CC1)NCc1nc(N2CCOCC2)sc1-c1ccncc1` [Compound 112, N-[[2-(4-morpholinyl)-5-(4-pyridinyl)-4-thiazolyl]methyl]-cyclopropaneacetamide] showed a melting point of 135 °C. Further, on human alpha 7-wt nAChR (setting [1]), the Emax came out at 525%.

The compound `Cc1cc(-c2sc(N3C[C@@H](C)O[C@@H](C)C3)nc2CNC(=O)c2ccc3c(c2)OC(F)(F)O3)cc(C)n1` [Compound 45, N-[[2-[(2R,6S)-2,6-dimethyl-4-morpholinyl]-5-(2,6-dimethyl-4-pyridinyl)-4-thiazolyl]methyl]-2,2-difluoro-1,3-benzodioxole-5-carboxamide] had a melting point of 175 °C. Besides, the Emax on human alpha 7-wt nAChR (setting [1]) was found to be 566%. Moreover, on human alpha 7-wt nAChR, the EC50 is 355 nM.

With `Cc1cc(-c2sc(N3CC(C)OC(C(F)(F)F)C3)nc2CNC(=O)CC2CC2)cc(C)n1` (racemic) [Compound 205, N-[[5-(2,6-dimethyl-4-pyridinyl)-2-[2-methyl-6-(trifluoromethyl)-4-morpholinyl]-4-thiazolyl]methyl]-cyclopropaneacetamide], the melting point was 148 °C. The “a7-PAM-G_[33]_Eff_Curve_FI % Efficacy” value at human alpha 7-wt nAChR (setting [1]) is 883%. For the same compound, the EC50 on human alpha 7-wt nAChR was 38 nM.

`Cc1cc(-c2sc(N3C[C@@H](C)O[C@@H](C)C3)nc2CNC(=O)c2ccc(F)c(F)c2C)cc(C)n1` [Compound 38, N-[[2-[(2R,6S)-2,6-dimethyl-4-morpholinyl]-5-(2,6-dimethyl-4-pyridinyl)-4-thiazolyl]methyl]-3,4-difluoro-2-methyl-benzamide] yielded a melting point of 187 °C. Moreover, the EC50 at human alpha 7-wt nAChR is 5.5 nM.

As to `Cc1cc(-c2sc(N3CC4CCC(C3)O4)nc2CNC(=O)c2cc(C)on2)cc(C)n1` [Compound 210, N-[[5-(2,6-dimethyl-4-pyridinyl)-2-(8-oxa-3-azabicyclo[3.2.1]oct-3-y1)-4-thiazolyl]methyl]-5-methyl-3-isoxazolecarboxamide], the melting point came out at 206 °C. Besides, the Emax on human alpha 7-wt nAChR (setting [1]) was 632%. On human alpha 7-wt nAChR, the EC50 was 3980 nM.

Regarding `Cc1cc(-c2sc(N3CCOCC3)nc2CNC(=O)C2CCC2)cc(C)n1` [Compound 65, N-[[5-(2,6-dimethyl-4-pyridinyl)-2-(4-morpholinyl)-4-thiazolyl]methyl]-cyclobutanecarboxamide], the melting point is 188 °C. The EC50 on human alpha 7-wt nAChR was 3240 nM.

Take `Cc1cc(-c2sc(N3C[C@@H](C)O[C@@H](C)C3)nc2CNC(=O)c2cc(C)n(C)n2)cc(C)n1` [Compound 131, N-[[2-[(2R,6S)-2,6-dimethyl-4-morpholinyl]-5-(2,6-dimethyl-4-pyridinyl)-4-thiazolyl]methyl]-1,5-dimethyl-1H-pyrazole-3-carboxamide]: the Emax on human alpha 7-wt nAChR (setting [1]) amounted to 462%.

With `Cc1cc(-c2sc(N3C[C@@H](C)O[C@@H](C)C3)nc2CNC(=O)C2(C)CC2)cc(C)n1` [Compound 34, N-[[2-[(2R,6S)-2,6-dimethyl-4-morpholinyl]-5-(2,6-dimethyl-4-pyridinyl)-4-thiazolyl]methyl]-1-methyl-cyclopropanecarboxamide], the Emax at human alpha 7-wt nAChR (setting [1]) came to 237%.

On to `Cc1ccc(-c2sc(N3C[C@@H](C)O[C@@H](C)C3)nc2CNC(=O)c2ccccc2F)cn1` [Compound 124, N-[[2-[(2R,6S)-2,6-dimethyl-4-morpholinyl]-5-(6-methyl-3-pyridinyl)-4-thiazolyl]methyl]-2-fluoro-benzamide], for which the Emax at human alpha 7-wt nAChR (setting [1]) was 356%.

On to `Cc1cc(-c2sc(N3C[C@@H](C)O[C@@H](C)C3)nc2CNC(=O)c2nc(C)oc2C(F)(F)F)cc(C)n1` [Compound 20, N-[[2-[(2R,6S)-2,6-dimethyl-4-morpholinyl]-5-(2,6-dimethyl-4-pyridinyl)-4-thiazolyl]methyl]-2-methyl-5-(trifluoromethyl)-4-oxazolecarboxamide], for which the Emax at human alpha 7-wt nAChR (setting [1]) was 253%. In addition, at human alpha 7-wt nAChR, the EC50 was 1740 nM.

In the case of `Cc1cc(-c2sc(N3C[C@@H](C)O[C@@H](C)C3)nc2CNC(=O)c2cccc(Cl)c2)ccn1` [Compound 91, 3-chloro-N-[[2-[(2R,6S)-2,6-dimethyl-4-morpholinyl]-5-(2-methyl-4-pyridinyl)-4-thiazolyl]methyl]-benzamide], at human alpha 7-wt nAChR (setting [1]), the Emax worked out at 445%. In addition, the EC50 on human alpha 7-wt nAChR is 407 nM.

As for `Cc1cc(-c2sc(N3C[C@@H](C)O[C@@H](C)C3)nc2CNC(=O)c2ccc(C(F)(F)F)nc2C)cc(C)n1` [Compound 165, N-[[2-[(2R,6S)-2,6-dimethyl-4-morpholinyl]-5-(2,6-dimethyl-4-pyridinyl)-4-thiazolyl]methyl]-2-methyl-6-(trifluoromethyl)-3-pyridinecarboxamide], the EC50 on human alpha 7-wt nAChR was 49 nM.

With `Cc1cc(-c2sc(N3C[C@@H](C)O[C@@H](C)C3)nc2CNC(=O)c2conc2C)cc(C2CC2)n1` [Compound 106, N-[[5-(2-cyclopropy1-6-methyl-4-pyridinyl)-2-[(2R,6S)-2,6-dimethyl-4-morpholinyl]-4-thiazolyl]methyl]-3-methyl-4-isoxazolecarboxamide], on human alpha 7-wt nAChR (setting [1]), the Emax worked out at 650%. The EC50 at human alpha 7-wt nAChR was 81.3 nM.
